PubChem BioAssay AID256 (DTP/NCI, 2004)
Where “and” joins values, the source holds several entries; their conditions need not be identical. Equal values may be shown once. Inconclusive results and toxic doses are left out. Rule for the calls: active = survival T/C of 150% or more; inactive = T/C below 125% in these data.

System: CD2F1 mice, L1210 leukemia ip, survival T/C
Assay: NCI In Vivo Anticancer Drug Screen. Data for tumor model L1210 Leukemia (intraperitoneal) in CD2F1 (CDF1) mice
Conditions: higher = longer survival
Summary of the method: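 Vehicle-treated tumor-bearing mice served as controls (C) for compound-treated mice (T). Reported figure is T divided by C.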

[1] = endpoint: mean survival time, dose: 100.0 mg/kg/injection, schedule: Q04DX003 (ip), vehicle: saline with Tween-80
[2] = endpoint: mean survival time, dose: 200.0 mg/kg/injection, schedule: Q04DX003 (ip), vehicle: saline with Tween-80
[3] = endpoint: mean survival time, dose: 400.0 mg/kg/injection, schedule: Q04DX003 (ip), vehicle: saline with Tween-80
[4] = endpoint: mean survival time, dose: 75.0 mg/kg/injection, schedule: Q01DX001 (ip), vehicle: saline
[5] = endpoint: mean survival time, dose: 150.0 mg/kg/injection, schedule: Q01DX001 (ip), vehicle: saline
[6] = endpoint: mean survival time, dose: 50.0 mg/kg/injection, schedule: Q01DX009 (ip), vehicle: saline with Tween-80
[7] = endpoint: mean survival time, dose: 100.0 mg/kg/injection, schedule: Q01DX009 (ip), vehicle: saline with Tween-80
[8] = endpoint: mean survival time, dose: 200.0 mg/kg/injection, schedule: Q01DX009 (ip), vehicle: saline with Tween-80
[9] = endpoint: mean survival time, dose: 400.0 mg/kg/injection, schedule: Q01DX009 (ip), vehicle: saline with Tween-80

Measured: T/C

CCCC1CC[N-]CC1.CCCC1CC[N-]CC1.[Br][Pt+2]([Br])([Br])[Br]
inactive: endpoint: mean survival time, dose: 6.25 mg/kg/injection, schedule: Q01DX009 (ip), vehicle: water 94 % of control | endpoint: mean survival time, dose: 12.5 mg/kg/injection, schedule: Q01DX009 (ip), vehicle: water 96 % of control | endpoint: mean survival time, dose: 25.0 mg/kg/injection, schedule: Q01DX009 (ip), vehicle: water 97 % of control | endpoint: mean survival time, dose: 50.0 mg/kg/injection, schedule: Q01DX009 (ip), vehicle: water 91 % of control | endpoint: mean survival time, dose: 100.0 mg/kg/injection, schedule: Q04DX003 (ip), vehicle: water 90 % of control

COC(=O)Nc1cn2cc(C(=O)c3cccs3)ccc2n1
inactive: endpoint: median survival time, dose: 6.25 mg/kg/injection, schedule: Q01DX009 (ip), vehicle: Klucel (hydroxypropylcellulose) (HPC) 104 % of control | endpoint: median survival time, dose: 12.5 mg/kg/injection, schedule: Q01DX009 (ip), vehicle: Klucel (hydroxypropylcellulose) (HPC) 112 % of control | endpoint: median survival time, dose: 25.0 mg/kg/injection, schedule: Q01DX009 (ip), vehicle: Klucel (hydroxypropylcellulose) (HPC) 119 % of control | endpoint: median survival time, dose: 50.0 mg/kg/injection, schedule: Q01DX009 (ip), vehicle: Klucel (hydroxypropylcellulose) (HPC) 124 % of control

CC(=O)C1CCC2C3CC=C4CC(OC(=O)CCC(C)C)CCC4(C)C3CCC12C (stereo not given)
inactive: [1] 95 % of control | [2] 95 % of control | [3] 92 % of control

O=S(=O)(O)O.[Zr]
inactive: [4] 97 % of control | [5] 91 % of control

CCn1c(C)[n+](CC)c2ccc(C(F)(F)F)cc21
inactive: [4] 94 % of control | [5] 100 % of control

CC(C)NC(=O)C1C=C2c3cccc4c3C(CN4)CC2N(C)C1 (stereo not given)
inactive: [6] 93 % of control | endpoint: mean survival time, dose: 50.0 mg/kg/injection, schedule: Q04DX003 (ip), vehicle: saline 94 % of control | [7] 100 % of control | endpoint: mean survival time, dose: 100.0 mg/kg/injection, schedule: Q04DX003 (ip), vehicle: saline 88 % of control | [8] 97 % of control | endpoint: mean survival time, dose: 200.0 mg/kg/injection, schedule: Q04DX003 (ip), vehicle: saline 94 % of control

CCCCCCCC(=O)Nc1c(C)cc(C)cc1C
inactive: [7] 91 % of control | [8] 98 % of control | [9] 92 % of control

CCOC(NCc1ccc(OC)c(OC)c1)OCC
inactive: endpoint: mean survival time, dose: 100.0 mg/kg/injection, schedule: Q01DX001 (ip), vehicle: saline 98 % of control | endpoint: mean survival time, dose: 200.0 mg/kg/injection, schedule: Q01DX001 (ip), vehicle: saline 98 % of control

Cc1ccc(S(=O)(=O)N(C)N=O)cc1
inactive: [7] 89 % of control | [1] 97 % of control | [8] 106 % of control | [2] 102 % of control | [9] 102 % of control | [3] 107 % of control

C=C(Cl)CNC(N)=S
inactive: [1] 99 % of control | [2] 98 % of control

CC(Cc1ccccc1)NC1=NCCO1 (stereo not given)
inactive: [6] 96 % of control | [7] 104 % of control | [1] 104 % of control and 98 % of control and 89 % of control | [8] 93 % of control | [2] 91 % of control and 87 % of control | [3] 86 % of control

COC1=CCc2c(OC)ccc(OC)c2C1
inactive: endpoint: mean survival time, dose: 12.5 mg/kg/injection, schedule: Q01DX009 (ip), vehicle: other 103 % of control | endpoint: mean survival time, dose: 25.0 mg/kg/injection, schedule: Q01DX009 (ip), vehicle: other 103 % of control | endpoint: mean survival time, dose: 50.0 mg/kg/injection, schedule: Q01DX009 (ip), vehicle: other 93 % of control | endpoint: mean survival time, dose: 100.0 mg/kg/injection, schedule: Q01DX009 (ip), vehicle: other 95 % of control | endpoint: mean survival time, dose: 200.0 mg/kg/injection, schedule: Q01DX009 (ip), vehicle: other 88 % of control

CC(O)C1NC(=S)N(c2ccccc2)C1=O (stereo not given)
inactive: [4] 100 % of control | [5] 103 % of control | endpoint: mean survival time, dose: 300.0 mg/kg/injection, schedule: Q01DX001 (ip), vehicle: saline 103 % of control

C1N2CN3CN1CN(C2)C3.[Cl][Pt]([Cl])[Cl]
inactive: endpoint: mean survival time, dose: 3.13 mg/kg/injection, schedule: Q04DX003 (ip), vehicle: distilled water + Tween-80 103 % of control | endpoint: mean survival time, dose: 6.25 mg/kg/injection, schedule: Q04DX003 (ip), vehicle: distilled water + Tween-80 108 % of control | endpoint: mean survival time, dose: 12.5 mg/kg/injection, schedule: Q04DX003 (ip), vehicle: distilled water + Tween-80 109 % of control | endpoint: mean survival time, dose: 25.0 mg/kg/injection, schedule: Q04DX003 (ip), vehicle: distilled water + Tween-80 108 % of control | endpoint: mean survival time, dose: 50.0 mg/kg/injection, schedule: Q04DX003 (ip), vehicle: distilled water + Tween-80 115 % of control

C1CC[N-]CC1.C1CC[N-]CC1.C1CC[N-]CC1.C1CC[N-]CC1.[Co].[N-]=C=S.[N-]=C=S
inactive: endpoint: mean survival time, dose: 100.0 mg/kg/injection, schedule: Q04DX002 (ip), vehicle: saline with Tween-80 123 % of control
